The source made the active and inactive calls.
Legend:
[1] = target: T1, Voltage-gated N-type calcium channel alpha-1B subunit/Amyloid beta A4 precursor protein-binding family A member 1 (Homo sapiens, UniProt Q00975+Q02410); type: protein assay
[2] = target: T1, Voltage-gated N-type calcium channel alpha-1B subunit/Amyloid beta A4 precursor protein-binding family A member 1; type: protein assay; remark: listed apart in the source
[3] = Luminescence Cell-Based Dose Retest to Confirm Inhibitors of Cancer Stem Cells. [Related pubchem assays (depositor defined):AID2717, AID2721]; type: functional; details: Homo sapiens
[4] = target: T2, Heat shock factor protein 1 (Mus musculus, UniProt P38532); assay: decrease of HSF1-responsive luciferase luminescence – cell-based, NIH3T3, dose retest, confirmation (AID 2382); type: functional;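 further: NIH3T3 fibroblasts with HSF1-driven luciferase reporter stressed by proteasome inhibitor MG132; luminescence from HSF1-driven luciferase expression after 8 hours of MG132 stress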
T2 sequence (P38532 whole entry): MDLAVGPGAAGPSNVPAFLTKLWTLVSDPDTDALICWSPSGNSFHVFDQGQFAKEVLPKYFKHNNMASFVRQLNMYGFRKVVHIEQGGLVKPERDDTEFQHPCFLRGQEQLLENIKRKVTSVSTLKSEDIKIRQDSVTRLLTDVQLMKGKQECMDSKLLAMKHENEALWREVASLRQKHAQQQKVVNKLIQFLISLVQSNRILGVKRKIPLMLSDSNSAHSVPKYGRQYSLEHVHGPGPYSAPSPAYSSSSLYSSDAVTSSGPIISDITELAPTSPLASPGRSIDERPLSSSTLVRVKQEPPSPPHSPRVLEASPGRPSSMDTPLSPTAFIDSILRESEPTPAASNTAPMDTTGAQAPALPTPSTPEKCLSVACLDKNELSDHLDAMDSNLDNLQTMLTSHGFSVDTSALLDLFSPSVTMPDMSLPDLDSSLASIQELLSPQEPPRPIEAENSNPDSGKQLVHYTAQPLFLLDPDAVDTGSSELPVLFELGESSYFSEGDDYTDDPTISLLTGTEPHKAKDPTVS

Phosphomannomutase 2 = target: T3, Phosphomannomutase 2 (Homo sapiens, UniProt O15305); assay: Counter screen SAR assay for PMM2 inhibitors via a fluorescence intensity assay. [Related pubchem assays (depositor defined):AID1545, AID1574]
T3 sequence (O15305 whole entry): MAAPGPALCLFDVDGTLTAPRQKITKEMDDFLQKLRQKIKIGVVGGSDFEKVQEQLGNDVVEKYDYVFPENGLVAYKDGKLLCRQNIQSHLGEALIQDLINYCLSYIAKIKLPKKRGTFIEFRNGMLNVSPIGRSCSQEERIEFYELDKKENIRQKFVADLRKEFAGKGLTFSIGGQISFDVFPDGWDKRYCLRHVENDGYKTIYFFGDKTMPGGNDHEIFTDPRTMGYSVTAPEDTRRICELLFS

[5] = target: T4, Mannose-6-phosphate isomerase (Homo sapiens, UniProt P34949); assay: phosphomannose isomerase inhibition – biochemical, fluorescence intensity, confirmation (AID 1535)
T4 sequence (P34949 whole entry): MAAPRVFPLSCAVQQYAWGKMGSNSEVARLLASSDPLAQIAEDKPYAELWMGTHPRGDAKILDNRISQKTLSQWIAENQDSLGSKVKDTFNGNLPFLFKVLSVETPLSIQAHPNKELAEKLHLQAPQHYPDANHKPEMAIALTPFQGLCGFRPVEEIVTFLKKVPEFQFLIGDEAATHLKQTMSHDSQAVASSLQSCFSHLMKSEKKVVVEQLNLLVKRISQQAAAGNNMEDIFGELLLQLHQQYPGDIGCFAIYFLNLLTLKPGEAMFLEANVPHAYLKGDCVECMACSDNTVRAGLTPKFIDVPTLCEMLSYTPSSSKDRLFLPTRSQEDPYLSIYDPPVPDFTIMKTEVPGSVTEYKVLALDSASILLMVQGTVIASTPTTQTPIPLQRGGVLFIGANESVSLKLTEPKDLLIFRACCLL

[6] = target: T5, Phosphoethanolamine/phosphocholine phosphatase (Homo sapiens, UniProt Q8TCT1); assay: SAR assay for compounds that inhibit PHOSPHO1. [Related pubchem assays (depositor defined):AID1545, AID1565, AID1574]
T5 sequence (Q8TCT1 whole entry): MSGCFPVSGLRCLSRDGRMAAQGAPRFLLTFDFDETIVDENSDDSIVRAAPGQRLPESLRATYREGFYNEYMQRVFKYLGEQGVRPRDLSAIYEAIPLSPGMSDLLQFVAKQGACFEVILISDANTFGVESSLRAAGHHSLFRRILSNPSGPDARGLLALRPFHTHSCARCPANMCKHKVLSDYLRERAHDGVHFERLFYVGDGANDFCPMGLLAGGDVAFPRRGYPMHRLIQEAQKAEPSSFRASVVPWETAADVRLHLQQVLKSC

[7] = Luminescence Cell-Based Dose Response HTS to Identify Activators of Luciferase Translation or Activity in H4 […] Cells. [Related pubchem assays: 1829 (Project Summary), 1814 (Primary HTS)]; type: functional
H4 = assay: Luminescence Cell-Based Dose Response HTS to Identify Activators of 5'UTR Stem-Loop Driven Prion Protein mRNA Translation in H4 Neuroglioblastoma Cells. [Related pubchem assays: 1829 (Project Summary), 1814 (Primary HTS)]; type: functional; details: Homo sapiens
[8] = Luminescence Cell-Based Dose Confirmation HTS to Identify Activators of 5'UTR Stem-Loop Driven Alpha-Synuclein mRNA Translation in H4 Neuroglioblastoma Cells. [Related pubchem assays: 1829 (Project Summary), 1814 (Primary HTS)]; type: functional
[9] = decrease of insulin promoter-GFP reporter – imaging, high-content screening, mouse beta cells (AID 1628); type: functional; details: MIN6
[10] = MIN6 cell viability loss – mouse insulinoma, cytotoxicity control, dose response (AID 2122); type: functional;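 further: confirmatory high-throughput counterscreen run to flag cytotoxic compounds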
Protein skinhead-1 = target: T6, Protein skinhead-1 (Caenorhabditis elegans, UniProt P34707); type: functional
T6 sequence (P34707 whole entry): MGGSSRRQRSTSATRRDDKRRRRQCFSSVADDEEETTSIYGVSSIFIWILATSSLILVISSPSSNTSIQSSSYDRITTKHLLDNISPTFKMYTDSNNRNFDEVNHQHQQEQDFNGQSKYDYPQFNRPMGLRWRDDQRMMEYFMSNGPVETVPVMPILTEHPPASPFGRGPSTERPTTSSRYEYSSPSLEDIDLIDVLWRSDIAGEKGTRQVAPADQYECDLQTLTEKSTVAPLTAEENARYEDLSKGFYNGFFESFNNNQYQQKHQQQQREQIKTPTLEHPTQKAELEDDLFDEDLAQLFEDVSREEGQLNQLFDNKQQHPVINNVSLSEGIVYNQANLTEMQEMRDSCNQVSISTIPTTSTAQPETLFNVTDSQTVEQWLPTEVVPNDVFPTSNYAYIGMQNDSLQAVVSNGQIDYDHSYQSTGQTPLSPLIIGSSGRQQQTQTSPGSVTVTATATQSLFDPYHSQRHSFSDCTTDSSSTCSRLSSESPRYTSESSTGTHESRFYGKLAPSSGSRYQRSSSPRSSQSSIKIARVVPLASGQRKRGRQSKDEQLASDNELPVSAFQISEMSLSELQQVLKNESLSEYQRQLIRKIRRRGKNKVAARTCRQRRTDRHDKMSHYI

ORF 73 = target: T7, ORF 73 (Human herpesvirus 8, UniProt O40947); assay: KSHV LANA DNA-binding disruption – biochemical, fluorescence polarization, cherry-picked samples, dose response (AID 504725); set-up: species or system Human gammaherpesvirus 8;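 further: fluorescence polarization of a labeled DNA duplex reporting LANA DNA binding; potency is for inhibitors that block LANA binding to the DNA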
T7 sequence (O40947 whole entry): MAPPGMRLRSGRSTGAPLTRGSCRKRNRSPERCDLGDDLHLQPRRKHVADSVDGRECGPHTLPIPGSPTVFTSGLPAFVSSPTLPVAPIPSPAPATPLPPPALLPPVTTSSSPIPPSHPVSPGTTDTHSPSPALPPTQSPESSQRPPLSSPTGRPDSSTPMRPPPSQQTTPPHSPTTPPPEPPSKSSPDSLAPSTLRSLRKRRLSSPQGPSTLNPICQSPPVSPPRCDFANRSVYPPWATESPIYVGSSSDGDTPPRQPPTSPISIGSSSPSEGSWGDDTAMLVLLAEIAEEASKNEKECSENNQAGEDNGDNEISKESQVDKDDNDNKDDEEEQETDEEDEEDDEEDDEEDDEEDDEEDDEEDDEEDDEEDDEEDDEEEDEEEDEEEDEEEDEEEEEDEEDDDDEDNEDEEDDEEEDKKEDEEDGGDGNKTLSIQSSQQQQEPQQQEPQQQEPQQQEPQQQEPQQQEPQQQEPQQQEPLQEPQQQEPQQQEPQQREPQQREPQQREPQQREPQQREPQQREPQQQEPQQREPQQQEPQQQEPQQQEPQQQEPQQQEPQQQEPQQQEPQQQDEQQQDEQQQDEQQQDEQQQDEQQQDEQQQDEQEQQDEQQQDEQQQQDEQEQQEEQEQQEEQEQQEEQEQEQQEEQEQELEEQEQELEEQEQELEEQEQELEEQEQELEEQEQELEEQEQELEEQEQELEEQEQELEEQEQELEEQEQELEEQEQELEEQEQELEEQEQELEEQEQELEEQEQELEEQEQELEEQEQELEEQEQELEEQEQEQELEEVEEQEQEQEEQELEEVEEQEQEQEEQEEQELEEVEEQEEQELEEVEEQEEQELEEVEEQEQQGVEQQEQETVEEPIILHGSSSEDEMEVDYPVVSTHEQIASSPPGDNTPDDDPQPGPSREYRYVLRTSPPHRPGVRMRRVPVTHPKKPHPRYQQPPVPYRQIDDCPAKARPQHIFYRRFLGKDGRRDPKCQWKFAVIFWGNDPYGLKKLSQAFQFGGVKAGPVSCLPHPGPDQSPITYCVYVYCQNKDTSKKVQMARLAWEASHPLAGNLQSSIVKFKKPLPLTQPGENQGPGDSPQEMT

[11] = HEK-293T viability loss after treatment – luminescence, T-cell screen hits, cytotoxicity control for TCR NF-kB inhibitor project, dose response (AID 489026); type: functional, cell-based;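 further: cells exposed to compound about 14 hours before the viability readout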
[12] = target: T8, Endoribonuclease toxin MazF (Escherichia coli K-12, UniProt P0AE70); assay: substrate-only fluorescence increase artefacts – biochemical, single-stranded RNase substrate, counter-screen for MazEF activator project, dose response (AID 588502); type: functional
T8 sequence (P0AE70 whole entry): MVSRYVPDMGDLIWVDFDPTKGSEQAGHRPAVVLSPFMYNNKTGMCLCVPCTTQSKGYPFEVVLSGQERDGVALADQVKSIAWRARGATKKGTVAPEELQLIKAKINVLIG

[13] = target: T8, Endoribonuclease toxin MazF; assay: activation of MazEF endoribonuclease cleavage – biochemical, fluorescence, single-stranded RNA substrate, uHTS hits, dose response (AID 588481); type: functional
cells = type: functional
[14] = Vero E6 cell cytotoxicity, dose response, cytotoxicity control for non-replicating M. tuberculosis project, secondary assay (AID 492998); type: functional, VeroE6; details: Vero C1008
[15] = THP-1 cell cytotoxicity, dose response, cytotoxicity control for non-replicating M. tuberculosis project (AID 489025); type: functional
[16] = target: T9, E3 ubiquitin-protein ligase XIAP (Homo sapiens, UniProt P98170); assay: Counter Screen using XIAP-Bir3 for Chemical Antagonists of Bir1/2 domains of IAP-family anti-apoptotic proteins. [Related pubchem assays (depositor defined):AID1018, AID1449, AID1514, AID1638, AID1749, AID1750, AID488957, AID488963]
[17] = target: T9, E3 ubiquitin-protein ligase XIAP; assay: small molecules displacing peptide from XIAP – biochemical, IAP family, fluorescence polarization (AID 1018); type: functional

T9 sequence (P98170 whole entry): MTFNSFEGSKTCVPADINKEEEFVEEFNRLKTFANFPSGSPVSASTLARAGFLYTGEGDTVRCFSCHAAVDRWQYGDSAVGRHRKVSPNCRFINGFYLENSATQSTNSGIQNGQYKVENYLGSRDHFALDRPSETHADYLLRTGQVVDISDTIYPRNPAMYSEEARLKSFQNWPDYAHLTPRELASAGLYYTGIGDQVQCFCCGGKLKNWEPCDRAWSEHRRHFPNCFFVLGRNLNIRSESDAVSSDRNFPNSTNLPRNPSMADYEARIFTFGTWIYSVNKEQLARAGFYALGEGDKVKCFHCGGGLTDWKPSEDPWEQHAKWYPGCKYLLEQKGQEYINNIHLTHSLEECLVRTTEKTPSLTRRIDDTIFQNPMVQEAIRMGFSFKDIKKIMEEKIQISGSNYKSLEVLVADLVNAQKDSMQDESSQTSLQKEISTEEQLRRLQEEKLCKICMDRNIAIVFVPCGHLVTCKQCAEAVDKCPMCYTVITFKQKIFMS
T1 sequence (Q00975 whole entry): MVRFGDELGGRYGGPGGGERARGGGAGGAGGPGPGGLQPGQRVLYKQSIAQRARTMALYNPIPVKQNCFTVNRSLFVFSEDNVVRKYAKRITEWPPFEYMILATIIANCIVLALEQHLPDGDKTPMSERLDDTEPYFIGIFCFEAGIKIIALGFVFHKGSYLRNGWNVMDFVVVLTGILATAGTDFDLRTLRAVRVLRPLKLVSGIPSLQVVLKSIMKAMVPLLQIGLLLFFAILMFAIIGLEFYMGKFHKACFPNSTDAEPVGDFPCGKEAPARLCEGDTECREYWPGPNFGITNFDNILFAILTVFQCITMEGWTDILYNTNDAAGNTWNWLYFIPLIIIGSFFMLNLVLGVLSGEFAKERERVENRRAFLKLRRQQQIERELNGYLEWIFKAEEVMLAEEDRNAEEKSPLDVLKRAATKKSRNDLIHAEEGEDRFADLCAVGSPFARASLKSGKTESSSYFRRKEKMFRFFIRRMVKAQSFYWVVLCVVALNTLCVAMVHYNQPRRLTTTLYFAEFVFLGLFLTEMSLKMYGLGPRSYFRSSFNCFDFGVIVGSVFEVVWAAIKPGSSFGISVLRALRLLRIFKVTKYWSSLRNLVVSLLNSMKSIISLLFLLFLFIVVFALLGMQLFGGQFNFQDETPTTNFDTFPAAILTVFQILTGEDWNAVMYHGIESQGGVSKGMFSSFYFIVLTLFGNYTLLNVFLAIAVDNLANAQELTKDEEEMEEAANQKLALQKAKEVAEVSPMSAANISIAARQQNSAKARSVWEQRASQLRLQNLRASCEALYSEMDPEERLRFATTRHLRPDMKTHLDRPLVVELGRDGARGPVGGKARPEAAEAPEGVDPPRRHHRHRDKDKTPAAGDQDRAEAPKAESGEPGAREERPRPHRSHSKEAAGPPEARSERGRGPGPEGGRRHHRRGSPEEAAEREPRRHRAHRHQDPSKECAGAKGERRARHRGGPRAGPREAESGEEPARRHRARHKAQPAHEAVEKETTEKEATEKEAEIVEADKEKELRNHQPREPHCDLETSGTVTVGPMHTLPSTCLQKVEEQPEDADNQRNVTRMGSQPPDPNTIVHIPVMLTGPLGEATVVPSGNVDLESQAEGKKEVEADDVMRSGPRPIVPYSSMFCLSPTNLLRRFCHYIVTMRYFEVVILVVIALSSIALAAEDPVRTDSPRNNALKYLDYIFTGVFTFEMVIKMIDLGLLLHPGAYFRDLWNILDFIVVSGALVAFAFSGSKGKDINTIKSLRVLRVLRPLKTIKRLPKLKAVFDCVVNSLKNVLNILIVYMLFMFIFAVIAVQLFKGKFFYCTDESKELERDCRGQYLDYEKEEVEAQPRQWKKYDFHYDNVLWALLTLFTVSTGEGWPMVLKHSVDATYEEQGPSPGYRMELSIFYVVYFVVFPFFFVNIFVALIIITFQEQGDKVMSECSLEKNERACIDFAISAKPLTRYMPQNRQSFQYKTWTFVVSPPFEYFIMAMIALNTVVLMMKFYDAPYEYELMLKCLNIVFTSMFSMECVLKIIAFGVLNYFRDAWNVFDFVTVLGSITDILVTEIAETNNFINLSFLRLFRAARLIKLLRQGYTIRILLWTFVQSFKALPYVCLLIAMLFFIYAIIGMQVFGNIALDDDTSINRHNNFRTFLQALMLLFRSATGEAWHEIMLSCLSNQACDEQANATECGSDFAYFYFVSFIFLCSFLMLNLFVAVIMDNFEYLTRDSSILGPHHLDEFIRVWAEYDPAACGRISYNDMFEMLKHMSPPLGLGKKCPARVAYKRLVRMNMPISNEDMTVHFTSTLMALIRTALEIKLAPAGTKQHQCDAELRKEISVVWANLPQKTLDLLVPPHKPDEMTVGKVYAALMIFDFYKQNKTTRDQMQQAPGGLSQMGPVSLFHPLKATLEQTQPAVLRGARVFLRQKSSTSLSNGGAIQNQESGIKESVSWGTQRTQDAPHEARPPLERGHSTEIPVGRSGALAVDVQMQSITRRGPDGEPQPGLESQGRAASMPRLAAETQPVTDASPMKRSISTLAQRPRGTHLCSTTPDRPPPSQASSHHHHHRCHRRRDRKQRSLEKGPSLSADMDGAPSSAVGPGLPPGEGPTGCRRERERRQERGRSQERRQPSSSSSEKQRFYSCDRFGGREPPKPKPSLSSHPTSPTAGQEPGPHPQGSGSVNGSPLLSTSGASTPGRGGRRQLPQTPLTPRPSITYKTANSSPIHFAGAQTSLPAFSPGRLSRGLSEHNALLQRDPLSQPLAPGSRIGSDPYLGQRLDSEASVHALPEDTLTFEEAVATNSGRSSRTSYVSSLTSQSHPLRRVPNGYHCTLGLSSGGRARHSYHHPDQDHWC
T1 sequence (Q02410 whole entry): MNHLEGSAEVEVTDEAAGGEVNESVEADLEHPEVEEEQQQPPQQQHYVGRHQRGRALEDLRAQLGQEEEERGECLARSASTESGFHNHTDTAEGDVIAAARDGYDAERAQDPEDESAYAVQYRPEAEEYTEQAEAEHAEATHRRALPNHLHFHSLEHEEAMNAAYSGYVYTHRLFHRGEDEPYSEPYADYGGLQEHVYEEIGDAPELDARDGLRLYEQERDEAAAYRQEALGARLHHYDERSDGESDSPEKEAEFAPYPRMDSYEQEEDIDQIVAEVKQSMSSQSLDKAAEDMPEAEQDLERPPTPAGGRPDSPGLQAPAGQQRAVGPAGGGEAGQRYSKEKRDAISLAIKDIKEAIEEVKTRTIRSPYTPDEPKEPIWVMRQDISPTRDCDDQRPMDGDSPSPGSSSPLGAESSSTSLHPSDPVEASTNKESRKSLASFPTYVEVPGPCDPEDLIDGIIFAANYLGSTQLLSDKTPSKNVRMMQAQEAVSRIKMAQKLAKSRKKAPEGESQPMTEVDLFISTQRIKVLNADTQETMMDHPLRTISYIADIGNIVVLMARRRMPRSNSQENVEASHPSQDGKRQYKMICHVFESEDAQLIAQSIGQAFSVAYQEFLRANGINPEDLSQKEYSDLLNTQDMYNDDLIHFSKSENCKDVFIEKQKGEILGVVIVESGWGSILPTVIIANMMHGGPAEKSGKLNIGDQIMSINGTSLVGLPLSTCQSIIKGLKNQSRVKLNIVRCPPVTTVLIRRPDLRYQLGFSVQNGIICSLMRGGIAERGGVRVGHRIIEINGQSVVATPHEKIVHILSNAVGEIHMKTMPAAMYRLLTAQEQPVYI

CNC(=O)C1C(S)=NC(N)=C(C#N)C1c1ccccc1 (configuration not stated)
IC50 [1]: > 50 µM (inactive) | IC50 [2]: 1.68 µM (active) | AC50 [3]: > 195 µM (inactive) | EC50 [4]: 19 µM (active)

O=c1c2ccccc2sn1-c1ccc(S(=O)(=O)N2CCOCC2)cc1
IC50 (Phosphomannomutase 2): > 100 µM (inactive) | IC50 [5]: > 50 µM (inactive) | IC50 [6]: 0.545 µM (active)

NS(=O)(=O)c1ccc(N/N=C/c2cn(-c3ccccc3)nc2-c2ccccc2)c([N+](=O)[O-])c1
EC50 [7]: > 60 µM (not active) | EC50 (H4): > 120 µM (not active) | EC50 [8]: > 120 µM (not active) | IC50 [9]: 1.05 µM (active) | IC50 [10]: 3.46 µM (active)

Nc1cccc2cc(S(=O)(=O)O)ccc12
IC50 (Protein skinhead-1): > 100 µM (inactive) | AC50 (ORF 73): 108 µM (active)

O=C(c1ccccc1)c1cc([N+](=O)[O-])ccc1N1CCOCC1
IC50 [11]: > 80 µM (inactive)

[N-]=[N+]=Nc1cc([N+](=O)[O-])cc2sn(-c3ccccc3)c(=O)c12
IC50 (Phosphomannomutase 2): 96.4 µM (active) | IC50 [5]: > 50 µM (inactive) | IC50 [6]: 0.498 µM (active)

CCC(=O)Oc1ccc2c(c1)O/C(=C\c1ccco1)C2=O
EC50 [12]: 31.5 µM (inactive) | EC50 [13]: > 99 µM (inactive) | AC50 (ORF 73): 14.1 µM (active)

COC(=O)c1ccc(Sc2nnnn2-c2ccccc2)c([N+](=O)[O-])c1
IC50 (cells): 14.3 µM (active) | CC50 [14]: > 20 µM (active) | CC50 [15]: 20.5 µM (active)

C=CCOC(=O)/C=C/C(=O)NC(N)=O
IC50 [1]: 2.95 µM (active) | IC50 [2]: 7.61 µM (active)

Cc1nc([N+](=O)[O-])c(Br)n1CC(=O)c1ccccc1
IC50 (cells): 10.8 µM (active) | CC50 [14]: 18.6 µM (active) | CC50 [15]: 40 µM (active)

CCC(=O)OC1c2ccccc2C(=O)N1Cc1ccccc1 (configuration not stated)
IC50 [16]: > 100 µM (inactive) | IC50 [17]: > 100 µM (not active)

CC(=O)c1cnc(-c2ccccc2)s1
IC50 [16]: > 100 µM (inactive) | IC50 [17]: > 100 µM (not active)

Cc1cc(C(=O)CSc2nc3cc(Cl)ccc3[nH]2)c(C)n1CC1CCCO1 (configuration not stated)
IC50 [9]: 2.74 µM (active) | IC50 [10]: 2.99 µM (active)

CC1CCCC(NC(=O)c2cn(C)c3ccc(S(=O)(=O)N4CCCC4)cc3c2=O)C1C (configuration not stated)
IC50 [16]: > 100 µM (inactive) | IC50 [17]: > 100 µM (not active)

From ChEMBL document CHEMBL1201862, “PubChem BioAssay data set” (2004)
